From patent US6596774B1, “Synthesis, lipid peroxidation and cytotoxic evaluation of 10-substituted 1,5-dichloro-9(10H)-anthracenone derivatives” (priority 2001, dated 2003)
Structures can show the parent of a compound that is named as a salt.

Assays:
[1] = system: Iron-induced Lipid Peroxidation in Rat Brain Homogenates; test: Assay of lipid peroxidation (TBA method); assay type: biochemical, Wistar rats; details: for Inhibition (%) 0.005 mM / Inhibition (%) 0.05 mM / Inhibition % (0.5 mM) / Inhibition (%) 5 mM: Mean ± S.E., n = 4; for Inhibition (%) 0.005 mM / efficiency in lipid peroxidation inhibition versus ascorbic acid, (+)-α-tocopherol and mitoxantrone (in words): 0.005 mM; for Inhibition % (0.5 mM) / inhibitory effect on lipid peroxidation compared to ascorbic acid, (+)-α-tocopherol and mitoxantrone (in words): 0.5 mM
Method: The inhibitory effect on lipid peroxidation of these compounds were evaluated with rat brain phospholipid liposomes which provide an ideal model system for lipid peroxidation studies by Teng C. M., et. al., Eur. J. Pharmacol., vol. 303, pp. 129-139 (1996).
Assay of Lipid Peroxidation. Rat brain homogenate was prepared from the brains of freshly killed Wistar rats and its peroxidation in the presence of iron ions was measured by the thiobarbituric acid (TBA) method as described. The extent of lipid peroxidation was estimated as thiobarbituric acid-reactive substances and was read at 532 nm in a spectrophotometer (Shimadzu UV-160).

[2] = system: Human Cervical Carcinoma Cells of ME 180 (GBM8401); test: Cytotoxic activity test (cell proliferation assay), GBM8401 cells; assay type: cell-based; details: for IC50: Homo sapiens, ME-180, GBM8401 cells, 50% inhibition of cellular growth following 48 h of drug exposure
From the text: (§1) We evaluated the ability of the compounds to inhibit the growth of human oral epidermoid carcinoma cells (KB cell line), human cervical carcinoma cells of ME 180 (GBM8401) and Chinese hamster ovary (CHO) cells as normal cells, and lipid peroxidation in model membranes, respectively.
(§2) Cytotoxic Activity Test. Human oral epidermoid carcinoma cells (KB cell line), human cervical carcinoma cells of ME 180 (GBM8401) and Chinese hamster ovary (CHO) cells grown in plateau phase were cultivated, and the cell proliferation assay was performed as previously described. Inhibition of cellular growth was calculated by comparison of the mean values of the test compound (N=3) with the control (N=6-8) activity: (1-test compound/control)×100.

[3] = system: Human Oral Epidermoid Carcinoma Cells (KB cell line); test: Cytotoxic activity test (cell proliferation assay), KB cells; assay type: cell-based; details: 50% inhibition of cellular growth following 48 h of drug exposure
From the text: as §1, §2

[4] = system: Chinese Hamster Ovary (CHO) Cells; test: Cytotoxic activity test (cell proliferation assay), CHO cells as normal cells; assay type: cell-based; details: for IC50: Cricetulus griseus, 50% inhibition of cellular growth following 48 h of drug exposure; for toxicity in CHO compared with mitoxantrone (in words): versus mitoxantrone
From the text: as §1, §2

## Cc1c(C)c2c(c(C)c1O)CC[C@@](C)(CCC[C@H](C)CCC[C@H](C)CCCC(C)C)O2 [(+)-α-tocopherol, reference compound]
[1]; Table 3
  Inhibition (%) 0.005 mM: 0%
  Inhibition (%) 0.05 mM: 0%
  Inhibition % (0.5 mM): 53 ± 1.7%
  Inhibition (%) 5 mM: 100%
[1]; Table 2
  Inhibition % (0.5 mM): 53 ± 4.4%

## COC1c2cccc(Cl)c2C(=O)c2cccc(Cl)c21 (centres unmarked) [Compound 3a, 10-Methoxy 1,5-dichloro-9(10 H)-anthracenone]
[2]
  IC50: 23.5 µM
[3]
  IC50: 8.8 µM
[4]
  IC50: 2.9 µM
  toxicity in CHO compared with mitoxantrone (in words): more toxic in CHO than mitoxantrone
[1]; Table 2
  Inhibition % (0.5 mM): 7 ± 0.1%

## CCOC1c2cccc(Cl)c2C(=O)c2cccc(Cl)c21 (centres unmarked) [Compound 3b, 10-Ethoxy 1,5-dichloro-9(10 H)-anthracenone]
[2]
  IC50: 21.8 µM
[3]
  IC50: 6.1 µM
[4]
  IC50: 5.8 µM
[1]; Table 2
  Inhibition % (0.5 mM): 7 ± 0.1%

## CCCOC1c2cccc(Cl)c2C(=O)c2cccc(Cl)c21 (centres unmarked) [Compound 3c, 10-Propyloxy 1,5-dichloro-9(10 H)-anthracenone]
[2]
  IC50: 11.1 µM
[3]
  IC50: 1.8 µM
[4]
  IC50: 42 µM
[1]; Table 2
  Inhibition % (0.5 mM): 29 ± 2.5%

## CC(C)OC1c2cccc(Cl)c2C(=O)c2cccc(Cl)c21 (centres unmarked) [Compound 3d, 10-(2-Propyloxy) 1,5-dichloro-9(10 H)-anthracenone]
[2]
  IC50: 65.4 µM
[3]
  IC50: 21.8 µM
[4]
  IC50: 15.2 µM
[1]; Table 2
  Inhibition % (0.5 mM): 13 ± 1.3%

## CCCCOC1c2cccc(Cl)c2C(=O)c2cccc(Cl)c21 (centres unmarked) [Compound 3e, 10-(Butyloxy) 1,5-dichloro-9(10 H)-anthracenone]
[2]
  IC50: 29.5 µM
[3]
  IC50: 29.5 µM
[4]
  IC50: 8 µM
[1]; Table 2
  Inhibition % (0.5 mM): 31 ± 3.7%

## CC(C)COC1c2cccc(Cl)c2C(=O)c2cccc(Cl)c21 (centres unmarked) [Compound 3f, 10-(iso-Butyloxy) 1,5-dichloro-9(10 H)-anthracenone]
[2]
  IC50: 43.2 µM
[3]
  IC50: 14.7 µM
[4]
  IC50: 20.1 µM
[1]; Table 2
  Inhibition % (0.5 mM): 38 ± 3.1%

## O=C1c2cccc(Cl)c2C(OCc2ccccc2)c2cccc(Cl)c21 (centres unmarked) [Compound 3g, 10-Benzyloxy 1,5-dichloro-9(10 H)-anthracenone]
[2]
  IC50: 18.5 µM
[3]
  IC50: 93.4 µM
[4]
  IC50: 24.7 µM
[1]; Table 2
  Inhibition % (0.5 mM): 16 ± 1.5%

## CCN(CC)C1c2cccc(Cl)c2C(=O)c2cccc(Cl)c21 (centres unmarked) [Compound 4a, 10-Diethylamino 1,5-dichloro-9(10 H)-anthracenone]
[2]
  cytotoxicity on GBM in vitro assay (in words): high cytotoxicity and significant activity
  IC50: 7.5 µM
[3]
  IC50: 17.2 µM
[4]
  IC50: 15 µM
[1]; Table 2
  Inhibition % (0.5 mM): 12 ± 1.4%

## Cc1cccc(NC2c3cccc(Cl)c3C(=O)c3cccc(Cl)c32)c1 (centres unmarked) [Compound 4b, 10-(m-Toluidino) 1,5-dichloro-9(10 H)-anthracenone]
[2]
  IC50: 11.2 µM
[3]
  IC50: 9.5 µM
[4]
  IC50: 6.2 µM
[1]
  efficiency in lipid peroxidation inhibition versus ascorbic acid, (+)-α-tocopherol and mitoxantrone (in words): significantly more efficient
  inhibitory effect on lipid peroxidation compared to ascorbic acid, (+)-α-tocopherol and mitoxantrone (in words): better inhibitory effect
[1]; Table 3
  Inhibition (%) 0.005 mM: 23 ± 2.4%
  Inhibition (%) 0.05 mM: 92 ± 4.1%
  Inhibition % (0.5 mM): 100%
  Inhibition (%) 5 mM: 100%
[1]; Table 2
  Inhibition % (0.5 mM): 100%

## Cc1ccccc1NC1c2cccc(Cl)c2C(=O)c2cccc(Cl)c21 (centres unmarked) [Compound 4c, 10-(o-Toluidino) 1,5-dichloro-9(10 H)-anthracenone]
[2]
  cytotoxicity on GBM in vitro assay (in words): high cytotoxicity and significant activity
  IC50: 2.4 µM
[3]
  IC50: 3.4 µM
[4]
  IC50: 3.8 µM
  toxicity in CHO compared with mitoxantrone (in words): more toxic in CHO than mitoxantrone
[1]; Table 2
  Inhibition % (0.5 mM): 73 ± 3.5%

## Cc1ccc(NC2c3cccc(Cl)c3C(=O)c3cccc(Cl)c32)cc1 (centres unmarked) [Compound 4d, 10-(p-Toluidino) 1,5-dichloro-9(10 H)-anthracenone]
[2]
  cytotoxicity on GBM in vitro assay (in words): high cytotoxicity and significant activity
  IC50: 4.6 µM
[3]
  IC50: 11.3 µM
[4]
  IC50: 3 µM
  toxicity in CHO compared with mitoxantrone (in words): more toxic in CHO than mitoxantrone
[1]
  efficiency in lipid peroxidation inhibition versus ascorbic acid, (+)-α-tocopherol and mitoxantrone (in words): significantly more efficient
  inhibitory effect on lipid peroxidation compared to ascorbic acid, (+)-α-tocopherol and mitoxantrone (in words): better inhibitory effect
[1]; Table 3
  Inhibition (%) 0.005 mM: 33 ± 2.7%
  Inhibition (%) 0.05 mM: 94 ± 3.5%
  Inhibition % (0.5 mM): 100%
  Inhibition (%) 5 mM: 100%
[1]; Table 2
  Inhibition % (0.5 mM): 100%

## O=C1O[C@H]([C@@H](O)CO)C(O)=C1O [ascorbic acid, reference compound]
[1]; Table 3
  Inhibition (%) 0.005 mM: 7 ± 0.5%
  Inhibition (%) 0.05 mM: 22 ± 2.2%
  Inhibition % (0.5 mM): 87 ± 2.5%
  Inhibition (%) 5 mM: 100%
[1]; Table 2
  Inhibition % (0.5 mM): 87 ± 3.1%

## O=C1c2c(O)ccc(O)c2C(=O)c2c(NCCNCCO)ccc(NCCNCCO)c21 [mitoxantrone-HCl, reference compound]
[2]
  IC50: 1.5 µM
[3]
  IC50: 1.7 µM
[4]
  IC50: 4 µM
[1]; Table 3
  Inhibition (%) 0.005 mM: 10 ± 1.1%
  Inhibition (%) 0.05 mM: 52 ± 3.5%
  Inhibition % (0.5 mM): 64 ± 2.1%
  Inhibition (%) 5 mM: 100%
[1]; Table 2
  Inhibition % (0.5 mM): 64 ± 2.8%
